# Measured values taken from ChEMBL document CHEMBL2069183, “Inhibitor scaffold for the histone lysine demethylase KDM4C (JMJD2C)” (Bioorg Med Chem Lett, 2012).
# The source made the active and inactive calls. The rule behind the calls is not given here.
# Tests used:
# [1] = molecular target: T1, Lysine-specific demethylase 4C (Homo sapiens, UniProt Q9H3R0); assay: Inhibition of KDM4C catalytic core-mediated demethylation of ARK(Me)3STGGK after 30 mins by FDH-coupled assay
# T1 sequence (Q9H3R0 whole entry): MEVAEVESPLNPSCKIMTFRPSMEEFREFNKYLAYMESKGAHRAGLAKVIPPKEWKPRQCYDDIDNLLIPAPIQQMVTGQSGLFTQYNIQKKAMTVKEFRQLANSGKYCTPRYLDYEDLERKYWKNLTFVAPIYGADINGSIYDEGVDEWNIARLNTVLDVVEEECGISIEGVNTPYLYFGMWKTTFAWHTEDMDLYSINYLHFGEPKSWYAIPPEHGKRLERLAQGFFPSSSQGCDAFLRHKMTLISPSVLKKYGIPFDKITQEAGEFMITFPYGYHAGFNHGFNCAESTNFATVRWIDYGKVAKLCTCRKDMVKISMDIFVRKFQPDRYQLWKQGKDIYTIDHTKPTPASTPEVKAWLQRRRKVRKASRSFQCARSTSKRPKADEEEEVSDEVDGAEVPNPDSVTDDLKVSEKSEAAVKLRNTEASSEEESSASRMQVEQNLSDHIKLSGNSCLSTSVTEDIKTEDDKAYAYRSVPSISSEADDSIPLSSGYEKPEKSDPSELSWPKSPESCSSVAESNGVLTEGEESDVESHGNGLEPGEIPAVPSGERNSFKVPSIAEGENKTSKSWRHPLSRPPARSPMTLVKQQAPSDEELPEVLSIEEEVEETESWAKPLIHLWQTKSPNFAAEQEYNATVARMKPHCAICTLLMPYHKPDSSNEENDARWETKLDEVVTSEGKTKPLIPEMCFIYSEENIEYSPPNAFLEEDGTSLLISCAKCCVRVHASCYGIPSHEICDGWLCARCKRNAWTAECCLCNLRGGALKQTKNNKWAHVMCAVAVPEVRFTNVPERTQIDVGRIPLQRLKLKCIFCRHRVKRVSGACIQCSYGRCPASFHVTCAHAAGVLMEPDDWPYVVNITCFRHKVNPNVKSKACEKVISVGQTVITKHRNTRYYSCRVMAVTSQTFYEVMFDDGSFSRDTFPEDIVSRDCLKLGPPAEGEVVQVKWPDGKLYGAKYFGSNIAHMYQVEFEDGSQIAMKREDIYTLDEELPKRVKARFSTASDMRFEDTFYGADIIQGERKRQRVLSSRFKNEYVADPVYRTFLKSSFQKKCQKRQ
# [2] = molecular target: Alcohol dehydrogenase class-3 (Homo sapiens) (UniProt P11766); assay: Inhibition of FDH using formalin as substrate at 0.01 to 500 uM after 30 mins by fluorimetry
# Chain of Alcohol dehydrogenase class-3 (Homo sapiens) (P11766 2-374 limits assumed): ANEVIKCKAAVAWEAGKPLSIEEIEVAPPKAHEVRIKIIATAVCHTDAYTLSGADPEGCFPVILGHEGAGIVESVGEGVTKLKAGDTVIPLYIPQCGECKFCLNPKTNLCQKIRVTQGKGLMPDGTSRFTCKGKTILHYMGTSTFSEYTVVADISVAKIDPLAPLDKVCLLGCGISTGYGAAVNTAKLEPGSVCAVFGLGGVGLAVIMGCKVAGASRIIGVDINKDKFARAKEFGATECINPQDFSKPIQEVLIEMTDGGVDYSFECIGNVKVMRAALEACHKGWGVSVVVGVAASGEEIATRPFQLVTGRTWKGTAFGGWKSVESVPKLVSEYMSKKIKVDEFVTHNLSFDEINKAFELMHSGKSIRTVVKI
SMILES,IC50 [1] [µM],Ki [1] [µM],inhibition [2]
Oc1csc(O)n1,> 200,> 200,
[O-][n+]1nn(Cc2ccccc2)cc1Br,> 200,> 200,
Cn1cc(C(=O)O)nn1,> 200,> 200,
CN1C=C(Br)N(O)N1,> 200,> 200,
Cc1c(C(=O)O)cnn1C,> 200,> 200,
Cc1c(O)c(C=O)nn1-c1ccccc1,100,142,inactive
C[n+]1nn(Cc2ccccc2)cc1Cl,> 200,> 200,
[O-][n+]1nn(-c2ccccc2)c(Cl)c1Br,> 200,> 200,
N#Cc1cccnc1Nc1cccnc1Cl,> 200,> 200,
O=C(O)c1cc(C(=O)O)[nH]n1,> 200,> 200,
OCC1C(Cl)=NNN1c1ccccc1 (stereo not drawn),> 200,> 200,
Cn1c(Cl)cnc1CO,> 200,> 200,
Cc1ccc(-n2nc(C(=O)c3ccccc3)c(O)c2C)cc1,> 200,> 200,
O=C(O)c1cnn(-c2ccccc2)n1,> 200,> 200,
COc1ccc(Cn2nnc(C(=O)O)c2N)cc1,> 200,> 200,
c1cn[nH]c1 [PYRAZOLE],> 200,> 200,
O=C(O)c1cc([N+](=O)[O-])[nH]n1,> 200,> 200,
COn1nnc(C(=O)O)c1C(=O)O,> 200,> 200,

# Second part, the compound after the results:
IC50 [1] [µM],Ki [1] [µM],inhibition [2],SMILES
> 200,> 200,,COc1c(-c2ccccc2)nnn1C
> 200,> 200,,Cc1c(Cl)[n+]([O-])nn1-c1ccccc1
> 200,> 200,,CSc1c(Cl)[n+]([O-])nn1-c1ccccc1
> 200,> 200,,Clc1csc(-c2ccccc2)n1
> 200,> 200,,COc1sc(-c2ccccc2)nc1Cl
> 200,> 200,,Nc1cn(-c2ccccc2)nn1
> 200,> 200,,Cn1cc(Br)nc1-c1ccccc1
> 200,> 200,,O=C(O)c1cn(-c2ccccc2)nn1
